In patent US12109266B2, “Modulating gabarap to modulate immunogenic cell death” (Dana-Farber Cancer Institute, Inc., priority 2020, dated 2024):
Entries after “also recorded” stand apart in the source; their conditions may differ.

How the values were obtained:
5TGM1 tumors [1] = experiment: IHC CD3 staining of tumors; type: in vivo, mouse; conditions: tumors retrieved after one administration of the drugs
Procedure: (§1) NOD/SCID and C57BL/KaLwRijHsd mice were subcutaneously (sc) injected with 1×10^6 5TGM1 either WT or Calr^KO cells in PBS. When tumor became measurable, mice were randomized to receive either PBS or BTZ administered intra peritoneally (i.p.) 0.5 mg/kg twice/week for 2 weeks. Tumor sizes were measured as previously described (46), and mice were sacrificed when tumors reached 2 cm in diameter or ulceration or major compromise in quality of life. A parallel experiment was performed to allow for tumor harvesting after two injections ip of BTZ for RNA-seq analysis, as detailed below. For BTZ and STING agonist combination studies, C57BL/KaLwRijHsd (n=5/group) and SCID/NOD (n=6/group) mice bearing 5TGM1 WT and C57BL/KaLwRijHsd mice (n=5/group) bearing 5TGM1 Sting^KO tumors were randomized to receive: PBS, BTZ (0.375 mg/kg twice a week for 2 weeks, i.p.), ADU-S100 (100 μg) administered in the peritumoral area (day 1 and 2), or a combination. Tumor sizes were measured as described above. A parallel experiment in C57BL/KaLwRijHsd mice was performed to allow for tumor harvesting after one administration of either BTZ or ADU-S100. Tumors were fixed in 10% formalin for 24 h, and then maintained in 70% ethanol prior to paraffin embedding and processing for IHC to detect CD3 (#nb600 Ab, Novus Bio).

5TGM1 tumors [2] = experiment: In vivo tumor growth analysis; design: species or system mouse
Procedure: (§2) 6-week old female immunodeficient NOD.CB17-Prkdcscid/NCrCrl (NOD/SCID) mice (Charles River) and immunocompetent C57BL/KaLwRijHsd (Envigo) mice were housed in an animal facility at the Dana-Farber Cancer Institute (DFCI). All experiments were performed after approval by the Animal Ethics Committee of the DFCI and performed using institutional guidelines.
To assess the effect of BTZ in the absence of an immune system, NOD/SCID mice were subcutaneously injected with 1×10^6 5TGM1 WT cells in a 1:1 ratio with Matrigel® (Corning); to assess BTZ in an immunocompetent host, C57BL/KaLwRijHsd mice were injected with 1×10^6 5TGM1 either WT or calrKO in the same ratio with Matrigel®. When tumor became measurable, mice (5/group) were randomized to receive either PBS or BTZ administered intra peritoneally (i.p.) 0.5 mg/kg twice/week for 2 weeks. Tumor sizes were measured and mice were sacrificed when tumors reached 2 cm in diameter or ulceration or major compromise in quality of life. A parallel experiment was performed to allow for tumor harvesting after two injections i.p. of BTZ for RNA-seq analysis, as detailed below.
as §2, with “(NOD/SCID)” for “(NOD/SCID) mice”, “in the” for “in an”, “at DFCI.” for “at the Dana-Farber Cancer Institute (DFCI).”
as §1

5TGM1 cells = experiment: In vivo rechallenge of viable 5TGM1 cells in BTZ-treated mice; design: species or system mouse
Procedure: C57BL/KaLwRijHsd mice bearing 5TGM1 WT tumors were treated with BTZ as above. 2 weeks after observation of tumor regression, treated (n=5) as well as naïve mice (n=5), were rechallenged with viable 1×10^6 5TGM1 WT cells, and tumor growth was monitored over time. In a parallel experiment, spleens were harvested 2 weeks after tumor rechallenge from both groups to test T cell specific reactivity against multiple myeloma cell by ELISPOT assay (Translational Immunogenomics Laboratory, DFCI).

human DCs = experiment: DCs maturation assay; type: cell-based
Procedure: Immature DCs were generated as described above (“Generation of Mo-DCs” section). DCs were cultured alone or with untreated or BTZ pretreated-AMO1 (5 nM) for 24 h. DCs alone were cultured i) without maturation stimuli; ii) with 50 ng/ml of TNFalpha (Millipore Sigma); or iii) with 5 nM of BTZ. After 24 h, cells were harvested and analyzed by flow cytometry using the following Abs: anti-CD83-APC (#551073), CD86-FITC (#555657) and 7-AAD from BD Biosciences and CD11c-BV650 (#563404, Biolegend). Dead cells were excluded by 7-AAD positivity, and CD83 and CD86 expression was evaluated on CD11c+ cells.

naive T cells = experiment: Analysis of naive T cell proliferation; type: cell-based, human; conditions: 5 day co-culture with BTZ-treated AMO1 or NCI-H929 cells and DCs
Procedure: DCs were generated from healthy donors PBMCs as described above (“Generation of Mo-DCs” section). Naïve T cells were negatively selected from CD14-PBMCs from the same donors using the Naive Pan T Cell Isolation Kit (Miltenyi Biotec) and frozen. When DCs were generated, either untreated or BTZ-treated multiple myeloma cells were co-cultured with DCs and naïve T cells labeled with CellTrace™ Violet Cell Proliferation Kit (ThermoFisher Scientific) for 5 days. Naïve T cells were also cultured in the absence of multiple myeloma cells and in the presence of phytohemagglutinin (PHA) (20 ug/ml) as positive control. Before analysis, cells were stained with: CD8-FITC (#344704), CD4-PerCP/Cyanine5.5 (#317428) (BioLegend); and LIVE/DEAD™ Fixable Aqua dead Cell Stain (#L34966) (ThermoFisher Scientific). Proliferating CD4 and CD8 T cell subsets were then analyzed using the FlowJo software (Becton, Dickinson & Company).

## CC(C)C[C@H](NC(=O)[C@H](Cc1ccccc1)NC(=O)c1cnccn1)B(O)O [BTZ, bortezomib]
5TGM1 tumors [1]
  CD3+ T cell infiltration within tumors (IHC): increased CD3+ T cell infiltration within tumors
5TGM1 tumors [2]; 5TGM1 Calr^KO tumors in immunocompetent mice, BTZ 0.5 mg/kg twice/week for 2 weeks
  tumor growth: antagonized in CALR^KO tumors; also recorded: abrogated in mice bearing CRT^KO tumors; also recorded: abrogated in immunocompetent mice bearing 5TGM1 Calr^KO tumors
5TGM1 tumors [2]; 5TGM1 Sting^KO tumors in immunocompetent mice
  anti-tumor activity: significantly abrogated against tumors lacking Sting; also recorded: significantly reduced in vivo against multiple myeloma tumors lacking Sting
5TGM1 tumors [2]; 5TGM1 WT in immunocompetent C57BL/KaLwRij mice, BTZ 0.5 mg/kg twice/week for 2 weeks i.p.
  tumor growth: induces tumor regression in the presence of the immune system; also recorded: more potent 5TGM1 tumor cell shrinkage in immunocompetent hosts; also recorded: inhibited growth of 5TGM1 WT cells engrafted in immunocompetent (C57BL/KaLwRij) mice (FIG. 19A) to a greater extent than when these cells were engrafted in immunodeficient hosts; also recorded: induces ICD in a syngeneic murine model of MM
5TGM1 tumors [2]; 5TGM1 WT in immunodeficient NOD/SCID mice, BTZ 0.375 mg/kg, ADU-S100 100 ug day 1 and 2
  anti-tumor effects: abrogated the anti-tumor effects
5TGM1 tumors [2]; 5TGM1 WT in immunodeficient SCID/NOD mice, BTZ 0.5 mg/kg twice/week for 2 weeks i.p.
  tumor growth: can efficiently delay tumor growth in immunodeficient mice
5TGM1 cells; day 30 after rechallenge
  mice alive at the end of observation: 100%
5TGM1 cells; live 5TGM1 WT injected two weeks after BTZ-induced tumor regression
  tumor development after rechallenge: did not result in tumor development
Human DCs; 24 h co-culture with BTZ (5 nM) pretreated AMO1
  expression of CD83 and CD86 maturation markers on DCs: higher expression of CD86/CD83 on cell surface; also recorded: increased expression of CD83 and CD86 maturation markers
Human DCs; DCs with BTZ alone (5 nM), no MM cells
  expression of CD83 and CD86 maturation markers on DCs: not triggered by either untreated multiple myeloma cells or BTZ alone
Naive T cells
  proliferation of CD4+ and CD8+ naive T cells: increased proliferation of both CD4+ and CD8+ naïve T cells; also recorded: promotes proliferation of CD4+ and CD8+ naïve T cells
